A word on the IC50: it is the concentration at which inhibition is half-maximal.

The target in the assay is human A2A adenosine receptor (Homo sapiens (Human), UniProt P29274). The assay is described as follows: A2A binding affinity using SPA, Method (B). The note with it: [3H] SCH58261, A2A receptor-expressing membranes. An excerpt: Method (A) describes the procedure used to measure A2A binding affinity using radioligand binding. Method (B) describes the procedure used to measure A2A binding affinity using SPA technology. The method used to measure A2B binding affinity is also described below. The method used to determine the A2A IC50 value reported for each compound in the table is indicated next to the reported value. The A2B IC50 value measured using the A2B binding affinity assay is shown in the table next to the compound under the corresponding A2A value.
Sequence of human A2A adenosine receptor (P29274 whole entry): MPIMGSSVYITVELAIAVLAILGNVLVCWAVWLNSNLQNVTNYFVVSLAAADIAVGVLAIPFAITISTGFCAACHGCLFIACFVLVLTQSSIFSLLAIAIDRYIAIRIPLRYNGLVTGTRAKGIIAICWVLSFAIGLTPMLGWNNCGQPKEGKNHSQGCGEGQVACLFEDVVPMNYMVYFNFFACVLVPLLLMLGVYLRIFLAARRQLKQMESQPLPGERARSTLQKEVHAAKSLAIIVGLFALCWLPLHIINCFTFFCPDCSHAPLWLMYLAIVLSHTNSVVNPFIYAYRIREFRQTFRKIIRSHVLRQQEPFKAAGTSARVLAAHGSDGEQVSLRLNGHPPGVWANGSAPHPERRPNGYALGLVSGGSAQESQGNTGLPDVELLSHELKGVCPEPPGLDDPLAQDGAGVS
The A2A receptor affinity binding assay measured the amount of binding of a tritiated ligand with high affinity for the A2A adenosine receptor to membranes made from HEK293 or CHO cells recombinantly expressing the human A2A adenosine receptor, in the presence of varying concentrations of a compound of the invention. The data were generated using either filtration binding or a homogenous scintillation proximity assay (SPA).
Method (B): Measurement of A2A Binding Affinity Using SPA
Binding affinity using SPA was conducted as follows. Test compounds (50 nL) were dispensed into individual wells of a 384-well OptiPlate™ well (Perkin Elmer) by Echo® acoustic liquid transfer (Labcyte). 20 μL of 1.25 nM [^3H] SCH58261 ((7-(2-phenylethyl)-5-amino-2-(2-furyl)-pyrazolo-[4,3-e]-1,2,4-triazolo[1,5-c]pyrimidine)) in DPBS assay buffer (Dulbecco's phosphate buffered saline without calcium and magnesium, ThermoFisher Scientific, Cat. No. A1285601) supplemented with 10 mM MgCl2 was added. A2A receptor-expressing membranes were incubated with 20 μg/mL adenosine deaminase (Roche, Cat. No. 10 102 105 001) for 15 min at room temperature. The receptor-expressing membranes were then combined with wheat germ agglutinin-coated yttrium silicate SPA beads (GE Healthcare, Cat. No. RPNQ0023) in a ratio of 1:1000 (w/w) and incubated for 30 min at room temperature. 30 μL of the membrane/bead mixture (0.25 μg and 25 μg per well respectively) were added to the 384-well OptiPlate™ well. To define total and non-specific binding, wells containing 1% DMSO or 1 μM CGS15943 (Tocris Bioscience, Cat. No. 1699) respectively were also included in the experiment. The plate was incubated for 1 h at room temperature with agitation. The assay plate was then incubated for an h to allow the beads to settle before data were collected using a TopCount® (Perkin Elmer) scintillation counter. After normalization to total and non-specific binding, the percent effect at each compound concentration was calculated. The plot of percent effect versus the log of compound concentration was analyzed electronically using a 4-parameter logistic fit based on the Levenberg-Marquardt algorithm to generate IC50 values.
Take `COc1cccc2c1nc(N)n1nc(CCCCl)nc21` [Example 1.1, 2-(3-chloropropyl)-7-methoxy-[1,2,4]triazolo[1,5-c]quinazolin-5-amine]: the IC50 was found to be 15.5 nM.

`COc1cccc2c1nc(N)n1nc(CCCSc3ccc(C(F)(F)F)cc3)nc21` [Example 1.2, 7-methoxy-2-(3-((4-(trifluoromethyl)phenyl)thio)propyl)-[1,2,4]triazolo[1,5-c]quinazolin-5-amine] had an IC50 of 8.4 nM.

For `COc1cccc2c1nc(N)n1nc(CSCc3ccc(F)cc3)nc21` [Example 1.3, 2-(((4-fluorobenzyl)thio)methyl)-7-methoxy-[1,2,4]triazolo[1,5-c]quinazolin-5-amine], the IC50 was found to be 7.3 nM.

`CCOCc1nc2c3cccc(OC)c3nc(N)n2n1` [Example 4.2, 2-(ethoxymethyl)-7-methoxy-[1,2,4]triazolo[1,5-c]quinazolin-5-amine] showed an IC50 of 8.7 nM.

The compound `COc1cccc2c1nc(N)n1nc(COCc3ccsc3)nc21` [Example 4.3, 7-methoxy-2-((thiophen-3-ylmethoxy)methyl)-[1,2,4]triazolo[1,5-c]quinazolin-5-amine] registered an IC50 of 2.7 nM.

For `COc1cccc2c1nc(N)n1nc(COCc3ccc(F)cc3)nc21` [Example 4.4, 2-(((4-fluorobenzyl)oxy)methyl)-7-methoxy-[1,2,4]triazolo[1,5-c]quinazolin-5-amine], the IC50 amounted to 4.7 nM.

The compound `COc1cccc2c1nc(N)n1nc(COCc3c(C)ccnc3C)nc21` [Example 4.5, 2-(((2,4-dimethylpyridin-3-yl)methoxy)methyl)-7-methoxy-[1,2,4]triazolo[1,5-c]quinazolin-5-amine] yielded an IC50 of 8.7 nM.

In turn, `COc1cccc2c1nc(N)n1nc(CO[C@H](C)c3ccc(F)cc3)nc21` [Example 4.6, (R)-2-((1-(4-fluorophenyl)ethoxy)methyl)-7-methoxy-[1,2,4]triazolo[1,5-c]quinazolin-5-amine] gave an IC50 of 8.3 nM.

`COc1cccc2c1nc(N)n1nc(CO[C@@H](C)c3ccc(F)cc3)nc21` [Example 4.7, (S)-2-((1-(4-fluorophenyl)ethoxy)methyl)-7-methoxy-[1,2,4]triazolo[1,5-c]quinazolin-5-amine] yielded an IC50 of 4.6 nM.

With `COc1cccc2c1nc(N)n1nc(COCc3csc4ccccc34)nc21` [Example 4.8, 2-((benzo[b]thiophen-3-ylmethoxy)methyl)-7-methoxy-[1,2,4]triazolo[1,5-c]quinazolin-5-amine], the IC50 was found to be 2.9 nM.

On to `CCC#CCOCc1nc2c3cccc(OC)c3nc(N)n2n1` [Example 4.9, 7-methoxy-2-((pent-2-yn-1-yloxy)methyl)-[1,2,4]triazolo[1,5-c]quinazolin-5-amine], for which the IC50 was 6.1 nM.

`COc1cccc2c1nc(N)n1nc(COCC(F)F)nc21` [Example 4.10, 2-((2,2-difluoroethoxy)methyl)-7-methoxy-[1,2,4]triazolo[1,5-c]quinazolin-5-amine] gave an IC50 of 4.4 nM.

In turn, `COc1cccc2c1nc(N)n1nc(COCC(F)(F)F)nc21` [Example 4.11, 7-methoxy-2-((2,2,2-trifluoroethoxy)methyl)-[1,2,4]triazolo[1,5-c]quinazolin-5-amine] displayed an IC50 of 3.5 nM.

Regarding `COc1cccc2c1nc(N)n1nc(COCCF)nc21` [Example 4.12, 2-((2-fluoroethoxy)methyl)-7-methoxy-[1,2,4]triazolo[1,5-c]quinazolin-5-amine], the IC50 is 7.2 nM.

Turning to `COc1cccc2c1nc(N)n1nc(COC(C)C)nc21` [Example 4.13, 2-(isopropoxymethyl)-7-methoxy-[1,2,4]triazolo[1,5-c]quinazolin-5-amine], the half-inhibitory concentration (IC50) stood at 5.7 nM.

(Values after patent publication US20240076297A1, “ADENOSINE A2A AND A2B RECEPTOR DUAL ANTAGONISTS FOR IMMUNO-ONCOLOGY” (Merck Sharp & Dohme LLC, priority 2020, published 2024).)
